Source: US5378694A, “Acyl and alkoxy substituted quinolines” (Schering Corporation, priority 1993, dated 1995)
Read-outs that look alike come from different tables or passages of the source.

Assays:
[1] = Compound toxicity assay: inhibition of HeLa cell translation (3H-LEU assay); assay type: cell-based; conditions: human; HeLa cells, cellular translational activity; read-out: CYTOTOXICITY 3H-LEU ASSAY IC50
Protocol: HeLa cells were treated with inhibitory compound for 24 hours, after which levels of translational activity were assayed.
For assay of translational activity, HeLa cultures were grown to 80% confluency in 96 well microtiter plates, treated with appropriate concentrations of compound in 2% EMEM during an overnight incubation at 37° C., then rinsed with HBSS and overlaid with […] of 2% EMEM containing 8 μCi of tritiated leucine (^3 H-LEU, 141 Cu/mMol, Amersham Corp., Arlington Heights Ill.). After a 1 hour incubation at 36.5° C., the cells were rinsed twice with phosphate-buffered saline (PBS) and lysed in 400 ul/well of 1 × PBS, 0.5% sodium dodecyl sulphate (SDS). After a 10 min incubation at 36.5° C., the contents of the well were transferred to a well in a Millititer HA microfiltration plate (Millipore Corp., Bedford, Mass.). The TCA-insolubleproteins were precipitated onto the filter disc by a 10 min fixation with 5% TCA, followed by filtration under vacuum and three 10 minute rinses with 95% ethanol. The filters were dried at room temperature, cut from the milltitier plate and transferred to scintillation vials. TCA-precipitable counts were assayed in 5 ml of Scintisol (Isolab, Akron, Ohio). The inhibitory activity of a compound was plotted versus the concentration and an IC50 value (that concentration of the compound required to decrease cellular translational activity by 50%) was derived for each compound.

[2] = SHR assay, blood pressure in conscious spontaneously hypertensive rats; assay type: in vivo, rat (spontaneously hypertensive rats; conditions: P.O.
Protocol: The ability of the compounds to lower blood pressure can be assessed in vivo in conscious spontaneously hypertensive rats (SHRs). SHR males are purchased from Taconic Farms, Germantown, N.Y. and are approximately 16-18 weeks old when anesthetized with ether. The caudal (ventral tail) artery is cannulated with polyethylene tubing (PE50), and blood pressure and heart rate are recorded as described by Baum, T. et. al., J. Cardiovasc. Pharmacol., Vol 5, pp. 655-667 (1983). Rats are placed into plastic cylindrical cages where they rapidly recover consciousness. Blood pressure and heart rate are allowed to stabilize for approximately 90 minutes prior to administration of the test compound. Compounds are administered orally as solutions or suspensions in 0.4% aqueous methylcellulose vehicle via a feeding needle. The compound or 0.4% aqueous methylcellulose vehicle is given in a volume of 4 ml/kg to SHRs that been fasted overnight. Activity is expressed as the fall in mean blood pressure (MBP) in millimeters of mercury (mm Hg). Compound-induced changes are compared with the changes in an appropriate placebo group.

HSV-2 (strain MS) = assay: Transient expression of beta galactosidase in transfected HeLa cells superinfected with HSV-2 (HSV-β-Gal assay); assay type: cell-based; conditions: 24 hours
Protocol: HeLa and Vero cell cultures were maintained in Eagles Minimal Essential Medium (EMEM) which was supplemented with glutamine, penicillin, streptomycin and 10% fetal calf serum (10% EMEM). Stock cultures of HSV-2 (strain MS available from ATCC VR-540) were grown in and harvested from Vero cells. Viral stocks were titered in Vero cells according to established procedures.
Plasmid pON^ori- 245 contains the promoter of the HSV-1 thymidine kinase (tk) gene located immediately 5' of the E. coli lac Z gene. In this arrangement, the tk promoter controls transcription from the bacterial gene in transient expression assays. Additionally, an SV40 polyadenylation signal is present at the 3' end of the lac Z gene to allow for the efficient translation of the mRNA in eucaryotic cells. The expression of beta galactosidase in a transient assay using pON 245^ori- is dependent upon superinfection of the transfected cells with HSV. […] For example, see European Patent Application No. 88302149.5 filed Mar. 11, 1988 and published Sep. 14, 1988 as 282,330, the disclosure of which is incorporated herein by reference thereto.
HeLa cells were seeded into 96 well microtiter plates and allowed to grow to 80% confluency (approximately 35000 cells/well). One half microgram of plasmid pON 245^ori- DNA was introduced into the cells of each well by the […] precipitation technique (Grabman and Van der Eb, 1973). Four to six hours later, the cells were rinsed with Hank's Balanced Salt Solution (HBSS), overlaid with 10% EMEM and incubated at 37° C. At 24 hours post-transfection, cells were rinsed, overlaid with 10% EMEM again and re-incubated at 37° C. At 48 hours post-transfection, cells were rinsed and overlaid with either EMEM containing 2% fetal calf serum (2% EMEM), 2% EMEM containing HSV-2 (strain MS, Multiplicity of Infection [moi]=5 pfu/cell) or 2% EMEM containing HSV-2 and the appropriate concentration of the compound to be tested. Twenty-four hours later, the cells were harvested and assayed for beta-galactosidase activity as described below.
All determinations of beta galactosidase activity were performed in 96-well microtiter plates. The intracellular level of beta-galactosidase activity in each well was determined from cell lysates of the monolayer cultures. Aliquots were assayed by incubation in the presence of beta-galactosidase substrate, 4-methylumbelliferyl-β-D-galactoside (MUG, 125 ug/ml, Sigma), for 2 hours. The generation of fluorescent product was quantified on a Microfluor microfluorimeter (Dynatech) after addition of 0.1M glycine, pH 10.3 (Spaete and Mocarski, 1985). The inhibitory activity of a compound was plotted versus the concentration and an IC50 value (the concentration in mcg/ml of compound required to reduce beta-galactosidase expression by 50%) was obtained for each compound tested.

[3] = target: T1, cGMP phosphodiesterase (cGMP-PDE) (Bos taurus, UniProt Q28156); assay: Phosphodiesterase inhibition in vitro (cGMP-PDE); assay type: biochemical; conditions: bovine lung cGMP-PDE; 1 μM 3H-cGMP, pH 7.5, 25 minutes, room temperature
T1 construct: is a homogeneous enzyme obtained from bovine lung; from tissue; host or cells: bovine lung

HSV-2, strain MS = assay: In vivo anti-HSV efficacy, prophylactic guinea pig model of HSV infection; conditions: 60 mg per kg s.c., T.I.D., 10 days; for Neurological Dysfunction (%): percentage of animals developing loss of bladder/hindlimb control, placebo 66; for MLS (Maximum Lesion Scores): scale of 1 to 4, first dose 24 hours before infection, placebo 2.22
Protocol: The in vivo assessment of anti-HSV efficacy was determined in the prophylactic guinea pig model of HSV infection described by Stansberry et al. (1982). Dosing of guinea pigs comprised an initial treatment with test compound given 24 hours prior to virus infection and subsequent administration of the compound every eight hours (T.I.D.) for a total of 10 days. Test compounds were administered subcutaneously in 0.5% buffered methyl cellulose at a dose of 60 mg per kg body weight of the animal. Animals were monitered daily for the development of genital lesions and neurological symptomology, both of which were recorded and compared to the results obtained with parallel groups which received placebo or acyclovir. Efficacy was evaluated for each compound by scoring the ability of the compound to ameliorate genital lesions produced by infection with HSV-2, strain MS, expressed as Maximum Lesson Scores (MLS) on a scale of 1 (least lessions) to 4 (severe lessons).

HSV = conditions: humans; cited from earlier work
herpes virus = conditions: mammals; cited from earlier work
HSV-2 = conditions: against HSV-2; cited from earlier work
HSV-1 = conditions: against HSV-1; cited from earlier work
[4] = Human alphaherpesvirus 2, moi 5 pfu/cell, read-out: ANTI-HSV ACTIVITY HSV-β-Gal ASSAY IC50
[5] = Human alphaherpesvirus 2, Repeat, moi 5 pfu/cell, read-out: ANTI-HSV ACTIVITY HSV-β-Gal ASSAY IC50 (repeat)

| SMILES | IC50 (HSV-2 (strain MS); [4]) | CC50 at 24 h [1] | further results |
| --- | --- | --- | --- |
| Cc1ccc2c(c1)c(O)c(C=O)c(=O)n2Cc1ccccc1 [Formula 1.5] | 4 µg/mL | 16 µg/mL | Fall in MBP ([2]; 50 mpk): 40 mm Hg; IC50 [3]: 90 µM |
| CC1(C)C(=O)C(C=O)=C(O)c2ccccc21 [Formula 1.16] | 7 µg/mL | 34 µg/mL | – |
| Cc1cccc2c(O)c(C=O)c(=O)n(Cc3ccccc3)c12 [Formula 1.3] | 3 µg/mL | 29 µg/mL | Fall in MBP ([2]; 25 mpk): 7 mm Hg; IC50 [3]: 10 µM |
| O=Cc1c(O)c2ccc(Cl)cc2n(Cc2ccccc2)c1=O [Formula 1.15] | 5 µg/mL | 23 µg/mL | – |
| Nc1nc2c(ncn2COCCO)c(=O)[nH]1 [Acyclovir, 9-[(2-hydroxyethoxy)methyl]guanine, reference compound] | – | – | Neurological Dysfunction (%) (HSV-2, strain MS): 44%; MLS (Maximum Lesion Scores) (HSV-2, strain MS): 1.61 |
| CCN(CC)CC(=O)Nc1c(C)cccc1C [lidocaine, 2-(diethylamino)-N-(2,6-dimethylphenyl)acetamide] | – | – | treatment of HSV oral and genital lesions (in words) (HSV): particularly effective in the treatment of HSV oral and genital lesions in humans; treatment of herpes virus infections (in words) (herpes virus): able to treat herpes virus infections of mammals; antiviral activity in cell culture (in words) (HSV-2): antiviral agent in cell culture against HSV-1 and HSV-2; antiviral activity in cell culture (in words) (HSV-1): antiviral agent in cell culture against HSV-1 and HSV-2 |

Continued, in another order:

| IC50 (HSV-2 (strain MS); [4]) | SMILES | CC50 at 24 h [1] | further results |
| --- | --- | --- | --- |
| 18 µg/mL | COc1ccc(OCCCOCn2c(=O)c(C=O)c(O)c3ccccc32)c(Cl)c1 [Formula 1.14] | – | – |
| 4 µg/mL | CCCCCCCn1c(=O)c(C=O)c(O)c2ccccc21 [Formula 1.4] | 32 µg/mL | IC50 (HSV-2 (strain MS); [5]): 4 µg/mL |
| 4 µg/mL | O=Cc1c(O)c2cc(Cl)ccc2n(Cc2ccccc2)c1=O [Formula 1.6] | 15 µg/mL | Fall in MBP ([2]; 25 mpk): 48 mm Hg; IC50 [3]: 17 µM |
| 7 µg/mL | Cn1c(=O)c(C=O)c(O)c2ccccc21 [Formula 1.7] | 56 µg/mL | IC50 (HSV-2 (strain MS); [5]): 7 µg/mL |
| 8 µg/mL | O=Cc1c(O)c2ccccc2n(-c2ccccc2)c1=O [Formula 1.9] | 12 µg/mL | Neurological Dysfunction (%) (HSV-2, strain MS): 0%; MLS (Maximum Lesion Scores) (HSV-2, strain MS): 0.67; IC50 [3]: 18 µM |
| 8 µg/mL | CCCCCCn1c(=O)c(C=O)c(O)c2ccccc21 [Formula 1.11] | 20 µg/mL | – |
| 7 µg/mL | O=Cc1c(O)c2ccccc2n(Cc2ccccc2)c1=O [Formula 1.8] | 29 µg/mL | – |
| 13 µg/mL | O=Cc1c(O)c2cc(O)ccc2n(Cc2ccccc2)c1=O [Formula 1.12] | – | – |
| 10 µg/mL | O=Cc1c(O)c2cc(OCc3ccccc3)ccc2n(Cc2ccccc2)c1=O [Formula 1.10] | 32 µg/mL | – |
